Columns and labels:
novel coronavirus = assay: In vitro inhibition of cytopathic effect caused by novel coronavirus in Vero E6 cells (CCK8); format: cell-based, COVID-19 novel coronavirus; conditions: for inhibition of cytopathic effect caused by the novel coronavirus (in words): Vero E6, summary of Table 1
[1] = tested on: intestinal barrier dysfunction of mice induced by lipopolysaccharide; assay: Intestinal permeability (serum FITC-glucan) in mice with intestinal barrier dysfunction induced by lipopolysaccharide; format: in vivo; conditions: 100 mg/kg oral gavage 30 days; model 35.06 ± 5.75, blank 9.40 ± 1.45
Procedure: Lipopolysaccharide could cause intestinal dysfunction of animals. The protective effects of the lysozyme and the combination containing lysozyme on the intestinal barrier dysfunction of mice induced by the lipopolysaccharide were researched in the test.
Test animals: male C57BL/6 mice with a cleaning degree, and with a weight ranging from 20 g to 25 g.
Grouping and administration of animals: the animals were randomly divided into a blank group, a model group, a lysozyme group (100 mg/kg), a lysozyme+monoammonium glycyrrhizinate group A (100 mg/kg+2 mg/kg), a lysozyme+monoammonium glycyrrhizinate group B (100 mg/kg+10 mg/kg), a lysozyme+monoammonium glycyrrhizinate group C (100 mg/kg+20 mg/kg), and a lysozyme+dipotassium glycyrrhizinate group (100 mg/kg+2 mg/kg), with eight animals in each group. Each drug group was administrated by oral gavage according to the dosage every day, while the blank group and the model group were administrated with normal saline. The administration was continuously performed for 30 days. […]
Measurement of intestinal permeability: animals of each group were administrated by oral gavage with 600 mg/kg FITC-glucan (dissolved in a phosphate buffer), and blood was taken from an eyeball after 4 hours. The content of the FITC-glucan in serum was measured by fluorescence spectrometry (with an excitation wavelength of 480 nm and an emission wavelength of 520 nm).

[2] = tested on: guinea pig inhaling smoke; assay: Airway resistance and lung function of guinea pig inhaling smoke; format: in vivo; conditions: once daily 4 weeks
Procedure: A smoked model is a classic animal modeling method of chronic obstructive pulmonary disease. After inhaling smoke for a long time, the animal may suffer from increase of mucus secretion, airway obstruction, and decrease of lung function. The effect of lysozyme on the airway obstruction was evaluated by the modeling method.
Male Hartley guinea pigs with weights ranging from 400 g to 500 g were randomly divided into a blank group, a model group, a lysozyme oral administration group (200 mg/kg), a lysozyme inhalation group (2 mg/kg), a lysozyme+monoammonium glycyrrhizinate inhalation group (2 mg/kg+0.1 mg/kg), a lysozyme+monopotassium glycyrrhizinate oral administration group I (200 mg/kg+20 mg/kg), and a lysozyme+monopotassium glycyrrhizinate oral administration group II (200 mg/kg+40 mg/kg), with eight animals in each group.
The animals in each group except the blank group were exposed to cigarette smoke by using a smoke exposure system inhaled only through nose and mouth, so that the animals inhaled smoke of five cigarettes within 40 minutes every day, for 5 days every week, and for 12 consecutive weeks.
Lysozyme and monoammonium glycyrrhizinate used for inhalation administration were respectively crushed into powder with a particle size less than […]. Then lysozyme and monopotassium glycyrrhizinate used for oral administration were respectively dissolved in normal saline.
The animals in each group except the blank group and the model group were administrated once every day for 4 consecutive weeks from the 8t^h week after modeling. The inhalation groups were administrated by a mouth and nose inhalation exposure system, while the oral administration groups were administrated by oral gavage. The blank group and the model group were administrated by oral gavage with normal saline every day.
Airway resistance measurement and the measurement of force expiratory volume in 100ms(millisecond) were performed after administration.
The animals were placed in a double chamber plethysmography system, and a specific airway resistance (sRaw) was measured after the animals were quiet for 10 minutes. The animals were anesthetized by intramuscular injection of ketamine, then a catheter was inserted into the trachea, and the force expiratory volume in 100ms […] was measured by a lung function detection system.

Occludin mRNA = assay: Expression of intestinal tissue tight junction protein in LPS mice, jejunum, quantitative PCR (occludin); format: in vivo; conditions: 100 mg/kg, model 0.54 ± 0.09, blank 1.04 ± 0.12
Procedure: (§1) Grouping and administration of animals: the animals were randomly divided into a blank group, a model group, a lysozyme group (100 mg/kg), a lysozyme+monoammonium glycyrrhizinate group A (100 mg/kg+2 mg/kg), a lysozyme+monoammonium glycyrrhizinate group B (100 mg/kg+10 mg/kg), a lysozyme+monoammonium glycyrrhizinate group C (100 mg/kg+20 mg/kg), and a lysozyme+dipotassium glycyrrhizinate group (100 mg/kg+2 mg/kg), with eight animals in each group. Each drug group was administrated by oral gavage according to the dosage every day, while the blank group and the model group were administrated with normal saline. The administration was continuously performed for 30 days.
(§2) Modeling: after the administration, the animals of each group except the blank group were intraperitoneally injected with 15 mg/kg lipopolysaccharide, and the blank group was injected with the normal saline. The animals were fasted for 12 hours after injection.
(§3) Determination of the expression of intestinal tissue tight junction protein: after the animals were killed, the jejunum tissue sample was taken to extract RNA, and relative expression levels of […] in the tissue were detected by quantitative PCR.

IL-6 mRNA = format: cell-based, African green monkey; conditions: 350 μg/mL; virus control 7.68 ± 0.50, blank 1.08 ± 0.07
TNF-α mRNA = format: cell-based, African green monkey; conditions: 350 μg/mL; virus control 3.61 ± 0.29, blank 1.01 ± 0.06
Claudin-1 mRNA = assay: Expression of intestinal tissue tight junction protein in LPS mice, jejunum, quantitative PCR (Claudin-1); format: in vivo; conditions: 100 mg/kg, model 0.73 ± 0.13, blank 1.07 ± 0.11
Procedure: as §1, §2, §3

[3] = 1,000 μg/mL, Vero E6, 100TCID50, 4 days
[4] = 2,000 μg/mL, Vero E6, 100TCID50, 4 days

Compound: CC1(C)[C@@H](O[C@H]2O[C@H](C(=O)O)[C@@H](O)[C@H](O)[C@H]2O[C@@H]2O[C@H](C(=O)O)[C@@H](O)[C@H](O)[C@H]2O)CC[C@]2(C)[C@H]3C(=O)C=C4[C@@H]5C[C@@](C)(C(=O)O)CC[C@]5(C)CC[C@@]4(C)[C@]3(C)CC[C@@H]12.N [Monoammonium glycyrrhizinate, monoammonium glycyrrhizinate, reference compound]
- Inhibition rate (%) on cytopathic effect (novel coronavirus; [3]): 23.35 ± 5.43%
- Inhibition rate (%) on cytopathic effect (novel coronavirus; [4]): 29.42 ± 7.16%
- inhibition of cytopathic effect caused by the novel coronavirus (in words) (novel coronavirus): weak inhibition effect

Compound: Lysozyme
- Content of FITC-glucan (serum) [1]: 27.53 ± 3.21 µg/mL
- Airway resistance ([2]; inhalation, 2 mg/kg): 3.10 ± 0.14 cmH2O · s
- Force expiratory volume in 100 ms ([2]; inhalation, 2 mg/kg): 7.68 ± 1.36 mL
- Force expiratory volume in 100 ms ([2]; oral administration, 200 mg/kg, model 4.18 ± 1.26, blank 11.86 ± 1.24): 5.79 ± 2.03 mL
- Airway resistance ([2]; oral administration, 200 mg/kg, model 4.72 ± 0.38, blank 1.43 ± 0.24): 3.79 ± 0.30 cmH2O · s
- Occludin mRNA Relative expression quantity (Occludin mRNA): 0.69 ± 0.07
- IL-6 mRNA Relative expression quantity (IL-6 mRNA): 6.78 ± 0.30
- TNF-α mRNA Relative expression quantity (TNF-α mRNA): 3.12 ± 0.26
- Claudin-1 mRNA Relative expression quantity (Claudin-1 mRNA): 0.79 ± 0.16
- Inhibition rate (%) on cytopathic effect (novel coronavirus; 350 μg/mL, Vero E6): 6.67 ± 1.56%
- Inhibition rate (%) on cytopathic effect (novel coronavirus; 500 μg/mL, Vero E6, 100TCID50, 4 days): 15.00 ± 8.66%
- Inhibition rate (%) on cytopathic effect (novel coronavirus; [3]): 46.67 ± 15.28%
- Inhibition rate (%) on cytopathic effect (novel coronavirus; [4]): 78.33 ± 2.89%
- inhibition of cytopathic effect caused by the novel coronavirus (in words) (novel coronavirus): significantly inhibit

Source: patent US20230158124A1, “DRUG, FOOD AND APPLICATION OF ANTI-CORONAVIRUS INFECTION” (priority 2020, published 2023)
